In patent publication US9328142B2, “Lipopeptide inhibitors of RAS oncoproteins” (The United States of America, as represented by The …, priority 2011, dated 2016):

Columns and labels:
[1] = test system: A549 human lung cancer cell line harboring constitutively active Ras mutant; assay: MTT growth inhibition assay, A549; type: cell-based; settings: A549, MTT
Description: (§1) MCF-7 (breast cancer), T47D (breast cancer), Colo 205 (colon cancer), JM-1 (rat hepatoma), Sk Mel-2 (melanoma), PLC (human hepatoma), and HepG2 (human hepatoma) were obtained from American Type Cell Culture Collection. MCF-7 cells were grown in RPMI medium supplemented with 10% Fetal Bovine Serum. The remaining cell lines were grown in DMEM medium supplemented with 10% Fetal Bovine Serum. For the assay, cells were seeded into 96 well plates in medium containing 1% Fetal Bovine Serum and 100 μL of a cell suspension containing 5000 cells per well were used for each well. Cell growth was evaluated utilizing MTT ((3-(4,5-Dimethylthiazol-2-yl)-2,5-diphenyltetrazolium). The absorbance of the wells at 544 nm was determined by a FLUOstar/POLARstar Galaxy (BMG Lab Technologies GmbH) microplate reader.
(§2) The growth inhibitory activity of compounds was compared using the A549 human lung cancer cell line harboring constitutively active G12D Ras mutant with the help of an MTT assay. […] Stepwise extensions and truncations confirmed that the peptide had the optimal length (see Table 1).
(§3) The growth inhibitory activity of compounds was compared using the A549 human lung cancer cell line harboring constitutively active G12D Ras mutant with the help of an MTT assay.

[2] = test system: activated (GTP-bound) Ras in H358 human lung cancer cells; assay: Raf-RBD pull-down of active (GTP-bound) Ras; type: cell-based; settings: 5 μM, varying exposure times
Description: H358 human lung cancer cells were grown in 6-well plates in DMEM medium containing 10% FBS. When the cells were about 70% confluent, the medium was replaced with DMEM containing 1% FBS. Two hours later, Ras inhibitors (kR-H6-48, HR-1, kR-4A-4, or kR-4B-2) were added to provide a final concentration of 5 μM.
After varying exposure times, the cells were rinsed with PBS and lysed. The lysates were cleared by centrifugation, incubated with immobilized Raf-RBD beads (which bind Ras) and analyzed by Western blot using manufacturer's protocols (Cytoskeleton, Inc., Denver, Colo.; Catalog No. BK008). The bands corresponding to active (GTP-bound) Ras were quantified with the help of MIPAV software.

[3] = test system: Ras-dependent cancer cells (H358, SKBR3, SKOV3, ID8, MPR-178); assay: MTT growth assay on Ras-dependent cancer cells; type: cell-based, human, murine; settings: 48 hours, 1% FBS
Description: Ras-dependent cancer cells (H358 human lung cancer cells, SKBR3 human breast cancer cells, SKOV3 human ovarian cancer cells, ID8 murine ovarian cancer cells, and MPR-178 murine prostate cancer cells) were grown in DMEM medium containing 1% FBS and exposed to varying concentrations of Ras inhibitors (kR-H6-48 and HR-1) for 48 hours. Cell growth was evaluated utilizing an MTT ((3-(4,5-Dimethylthiazol-2-yl)-2,5-diphenyltetrazolium) assay. The absorbance of the wells at 544 nm was determined by a FLUOstar/POLARstar Galaxy (BMG Lab Technologies GmbH, Ortenberg, Germany) microplate reader. The assays were performed on untreated (control) and test cells. Cellular responses were calculated from the data using the following formula: 100×[(T−T0)/(C−T0)] for T>T0 and 100×[(T−T0)/T0] for T<T0, wherein T0 corresponds to cell density at the time of drug addition.

[4] = test system: DPPC bilayers containing 5% DPPE stabilized by MSP1 scaffold protein (nanodiscs); assay: SPR membrane binding to phospholipid bilayer nanodiscs; settings: phospholipid bilayers
Description: Dipalmitoylphosphatidylcholine (DPPC) bilayers containing 5% dipalmitoyldiphosphatidylethanolamine (DPPE) stabilized by MSP1 scaffold protein were prepared. […] The preparation procedure involved mixing DPPC lipids with MSP1 at a 90:1 molar ratio in the presence of 100 mM cholate. Cholate was removed by slow dialysis. The assembled nanodiscs were purified by size-exclusion chromatography on a calibrated Superdex 200 column and immobilized on a surface plasmon resonance (SPR) sensor chip.
The presence of a primary amine group in DPPE provided a convenient site for cross-linking of nanodiscs to an SPR sensor chip. The noncross-linked dextran in the sample and reference cells was blocked by the coupling reagent. Four different peptides were used to study membrane binding by SPR. […] The HVR peptide lacks post-translational modifications present in K-Ras4B. The second peptide is the HVR peptide conjugated to S-farnesyl L-cysteine methyl ester via a bifunctional cross-linker Sulfosuccinimidyl-4-(N-maleimidomethyl)cyclohexane-1-carboxylate (Sulfo-SMCC) (Pierce). The other two peptides were kR-4A-C1 and kR-4B-C1.
In this situation determination of true dissociation constants was not feasible. Instead, the data were analyzed using the Hill equation. The Hill coefficient describes the degree of binding cooperativity.

HCC15 cells [5] = assay: Wound closure assay; type: cell-based
HCC15 cells [6] = assay: Cell migration, Boyden Chambers; type: cell-based; settings: IC25 concentration
Description: (§4) The rate of migration and invasion was determined using Boyden Chambers (Millipore) in accordance with the manufacturer's protocol.

HCC15 cells [7] = assay: Cell invasion, Boyden Chambers; type: cell-based; settings: IC25 concentration
Description: Cell invasion assays were performed using the BD Biocoat Matrigel Invasion Chambers in accordance with the manufacturer's protocol. Cells (1×10^5/mL) were seeded onto 12-well cell culture chamber using inserts with 8 μm pore size polycarbonate membrane over a thin layer of Matrigel Basement Membrane Matrix without phenol red (BD Biosciences) diluted at 1:100 in PBS. Following incubation of the plates for 48 hours at 37° C., cells that invaded through the Matrigel and migrated to the lower surface of the membrane were stained with Giemsa solution, counted under the microscope in at least 10 different fields, and photographed. Three wells were examined for each condition and cell type, and the experiments were repeated in triplicate.
as §4

[8] = test system: H358 human lung cancer cells with mutated K-Ras; assay: H358 tumor growth in nude mice; type: in vivo
Description: 2×10^6 H358 human lung cancer cells with mutated K-Ras were implanted subcutaneously (s.c.) in nude mice.

[9] = test system: human lung tumor cell lines (A549, H460, and H1944) and a mouse astrocytoma cell line (187436 tu2) expressing mutated K-Ras; assay: Growth inhibition in cell lines expressing mutated K-Ras (FIGS. 2 and 3); type: cell-based; settings: A549, H460, H1944, 187436 tu2
Description: The cell line was generated from astrocytoma developed in a transgenic mouse harboring a G12D mutation in K-Ras and inactivation of the Rb gene.

[10] = test system: A549 human lung cancer cell line harboring constitutively active G12D Ras mutant; assay: MTT growth inhibition assay, A549; type: cell-based
Description: as §1, §2, §3

Substance | GI50 ([1]; Table 1 helix 6 derivatives) | GI50 ([1]; Table 2 HVR derivatives) | other results
Ac-AFYTLVREIRQYR [kR-H6-17] | > 5000 nM |  | 
Ac-AFYTLVREIRQYRK (e-Pal) [kR-H6-8] | 5000 nM |  | 
Ac-DAFYTLVREIRQYRK (e-Pal) [kR-H6-9] | 500 nM |  | 
Ac-DGTQGLNLNGLPK-e-Pal [NR-1] |  | > 10000 nM | 
Ac-Doa-VEDAFYTLVREIRQYR [kR-H6-5] | 3300 nM |  | 
Ac-ESGPGLNLNSLNKK-e-Pal [HR-1] |  | 250 nM | GTP-bound Ras (fraction of control) [2]: reduction in activated (GTP-bound) Ras; growth of Ras-dependent cancer cells (cell number, percent of control) [3]: growth inhibition of Ras-dependent cancer cells
Ac-GLNVKIKKK-e-Pal [kR-4A-8] |  | > 10000 nM | 
Ac-KEKLNSKDGKKKKKKSKTKK-e-Pal [kR-4B-1] |  | 1450 nM | cooperative interactions with membrane lipids [4]: showed the best cooperative interactions with membrane lipids; cell motility (average closure) (HCC15 cells [5]): inhibition of HCC15 cell motility; cell migration (average number of cells migrated) (HCC15 cells [6]): inhibition of NCC15 cell migration; cell invasion (average number of cells migrated) (HCC15 cells [7]): inhibition of HCC15 cell invasion
Ac-KKKKSKTKK-e-Pal [kR-4B-7] |  | 2000 nM | 
Ac-KKKSKTKK-e-Pal [kR-4B-8] |  | 2300 nM | tumor weight at the time of sacrifice ([8]; 10 mg/kg s.c. every second day for 20 days, control 1.21 g): 0.35 g; tumor growth ([8]; 10 mg/kg s.c. near the tumor every second day for 20 days): abolished the growth
Ac-KLNSKDGKKKKKKSKTKK-e-Pal [kR-4B-2] |  |  | GTP-bound Ras (fraction of control) [2]: reduction in activated (GTP-bound) Ras
Ac-KTPGAVKIKKK-e-Pal [kR-4A-5] |  | 5000 nM | 
Ac-KTPGLNVKIKKK-e-Pal [kR-4A-4] |  | 700 nM | growth inhibition (cell number, percent of control) [9]: growth inhibition; GTP-bound Ras (fraction of control) [2]: reduction in activated (GTP-bound) Ras
Ac-LRYQRIQRVLTYFAK-e-Pal (all D) [kR-H6-31] | 25 ± 10 nM |  | 
Ac-PGLNVKIKKK-e-Pal [kR-4A-7] |  | > 10000 nM | 
Ac-RLKKISKEEKTPGSVKIKKK-e-Pal [kR-4A-1] |  | 3100 nM | cell motility (average closure) (HCC15 cells [5]): inhibition of HCC15 cell motility; cell migration (average number of cells migrated) (HCC15 cells [6]): inhibition of NCC15 cell migration; cell invasion (average number of cells migrated) (HCC15 cells [7]): inhibition of HCC15 cell invasion
Ac-RYQRIERVLTYFAK-e-Pal (all D) [kR-H6-23] | 25 ± 10 nM |  | fold more toxic to cancer cells than kR-H6-6 ([10]; retroinverso version versus kR-H6-6): 10 fold; growth inhibition (cell number, percent of control) [9]: growth inhibition
Ac-RYQRIQRVLTYFAK-e-Pal (all D) [kR-H6-30] | 10 ± 5 nM |  | additional fold reduction in GI50 ([10]; Glu162 replaced with Gln): 1.7 fold
Ac-RYQRIQRVLTYFK-e-Pal (all D) [kR-H6-32] | 10 ± 4 nM |  | 
Ac-TPGLNVKIKKK-e-Pal [kR-4A-6] |  | > 10000 nM | 
Ac-VEDAFYTLVREIRQYR [kR-H6-16] | > 5000 nM |  | 
Ac-VEDAFYTLVREIRQYRK (e-Pal) [kR-H6-7] | 2700 nM |  | 
Ac-YQRIQRVLTYFAK-e-Pal (all D) [kR-H6-33] | 4.5 ± 1 nM |  | 
Ac-YQRIQRVLTYFK-e-Pal (all D) [kR-H6-11] | 10 nM |  | 
Ac-YQRKQRVLTYFK-e-Pal (all D) [kR-H6-13] | 60 nM |  | 
Ac-YRLKKISKEEKTPGK-e-Pal [kR-4A-2] |  | 1650 nM | 
Cap-YQRVQRVLTYF (all D) [kR-H6-49] | 0.8 nM |  | 
